Source: US5128346A, “Derivatives of D-glutamic acid and D-aspartic acid” (priority 1990, dated 1992)
Where two headings read alike, the source gives them in different places.

How the values were obtained:
[1] = biological target: T1, Type-A CCK receptor (Cavia porcellus, UniProt Q63931); experiment: Radioligand binding, [^125 I]-BH-CCK8, Type-A CCK receptor (pancreatic membranes); parameters: species or system guinea pig
T1 construct: cortex and pancreas were removed and rinsed with ice cold saline; from tissue; host or cells: guinea pig pancreas, membranes
T1 sequence (Q63931 1-430): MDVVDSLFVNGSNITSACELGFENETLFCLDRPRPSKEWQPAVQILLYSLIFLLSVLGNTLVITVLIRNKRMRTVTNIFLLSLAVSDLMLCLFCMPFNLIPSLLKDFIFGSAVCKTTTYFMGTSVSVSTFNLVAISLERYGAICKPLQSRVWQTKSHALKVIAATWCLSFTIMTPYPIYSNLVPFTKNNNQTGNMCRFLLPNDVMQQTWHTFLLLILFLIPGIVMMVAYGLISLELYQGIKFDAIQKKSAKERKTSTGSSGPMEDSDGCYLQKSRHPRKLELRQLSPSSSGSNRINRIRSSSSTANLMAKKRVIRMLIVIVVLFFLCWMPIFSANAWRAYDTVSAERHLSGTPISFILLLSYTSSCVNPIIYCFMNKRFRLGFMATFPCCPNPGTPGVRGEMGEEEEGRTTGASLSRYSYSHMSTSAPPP
Text: (§1) CCK8 [Asp-Tyr(SO3 H)-Met-Gly-Trp-Met-Asp-Phe-NH2 ] was purchased from Beckman Instruments (Palo Alto, Ca/) and Peptide International (Louisville, Ky.). Chymostatin, L-Try-Gly, puromycin, bestatin, EGTA, HEPES and BSA were purchased from Sigma Chemical Co. (St. Louis, Mo.). [^125 I]BH-CCK8 (specific activity, 2200 Ci/mmol) and Aquasol 2 scintillation cocktail were obtained from New England Nuclear (Boston, Ma.). Male guinea pigs, 250 to 325 g, were obtained from Scientific Small Animal Laboratory and Farm (Arlington Heights, Ill.). Collagenase, 300 units per mg, was purchased from Worthington (Frehold, N.J.)
(§2) 1. Guinea Pig Cerebral Cortical and Pancreatic Membrane Preparations
(§3) Cortical and pancreatic membrances were prepared as described (Lin and Miller; J. Pharmacol. Exp. Ther. 232, 775-780, 1985). In brief, cortex and pancreas were removed and rinsed with ice cold saline. Visible fat and connective tissues were removed from the pancreas. Tissues were weighed and homogenized separately in approximately 25 mL of ice-cold 50 mM Tris-HCl buffer, pH 7.4 at 4° C., with a Brinkman Polytron for 30 sec, setting 7. The homogenates were centrifuged for 10 min at 1075×g and pellets were discarded. The supernatants were saved and centrifuged at 38,730×g for 20 min. The resultant pellets were rehomogenized in 25 mL of 50 mM Tris-HCl buffer with a Teflon-glass homogenizer, 5 up and down strokes. The homogenates were centrifuged again at 38,730×g for 20 min. Pellets were then resuspended in 20 mM HEPES, containing 1 mM EGTA., 118 mM NaCl, 5 mM MgCl2, 100 microM bestatin, 3 microM phosphoramidon, pH 7.4 at 22° C., with a Teflon-glass homogenizer, 15 up and down strokes. Resuspension volume for the cortex was 15-18 mL per gm of original wet weight and 60 mL per gm for the pancreas.
(§4) ^125 I]Bolton-Hunter CCK8, and test compounds were diluted with HEPES-EGTA-salt buffer (see above) containing 0.5% bovine serum albumin (BSA). To 1 mL Skatron polystyrene tubes were added 25 microliters of test compounds, 25 miroliters of [^125 I]BH-CCK8, and 200 microliters of membrane suspension. The final BSA concentration was 0.1%. The cortical tissues were incubated at 30° C. for 150 min and pancreatic tissues were incubated at 37° C. for 30 min. Incubations were terminated by filtration using Skatron Cell Harvester and SS32 microfiber filter mats. The specific binding of [^125 I]BH-CCK8, defined as the difference between binding in the absence and presence of 1 microM CCK8, was 85 90% of pancreas. IC50 's were determined from the Hill analysis.

[2] = biological target: T2, Type-B CCK receptor (Cavia porcellus, UniProt H0VZC5); experiment: Radioligand binding, [^125 I]-BH-CCK8, Type-B CCK receptor (cerebral cortical membranes); parameters: species or system guinea pig
T2 construct: cortex and pancreas were removed and rinsed with ice cold saline; from tissue; host or cells: guinea pig cerebral cortex, membranes
T2 sequence (H0VZC5 1-426): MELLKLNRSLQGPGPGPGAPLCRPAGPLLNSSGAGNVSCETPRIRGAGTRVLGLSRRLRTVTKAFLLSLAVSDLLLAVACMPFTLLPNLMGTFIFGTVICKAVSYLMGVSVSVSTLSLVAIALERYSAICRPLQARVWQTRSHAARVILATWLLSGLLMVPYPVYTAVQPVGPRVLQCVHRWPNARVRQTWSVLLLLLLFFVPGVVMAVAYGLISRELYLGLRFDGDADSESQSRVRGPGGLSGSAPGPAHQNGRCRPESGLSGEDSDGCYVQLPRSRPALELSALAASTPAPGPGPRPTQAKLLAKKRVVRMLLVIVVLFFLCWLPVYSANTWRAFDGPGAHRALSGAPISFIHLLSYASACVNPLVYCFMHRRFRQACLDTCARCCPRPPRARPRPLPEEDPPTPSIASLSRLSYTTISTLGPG
Text: as §1, §2, §3
as §4, with “The specific binding of [^125 I]BH-CCK8, defined as the difference between binding in the absence and presence of 1 microM CCK8, was 85 90% of pancreas.” left out

[3] = guinea pig cerebral cortical membranes, 30° C., 150 min, IC50 from Hill analysis

Structure (SMILES) | IC50 [1] | IC50 [2] | IC50, [^125 I]-BH-CCK, Type-B CCK Receptor [2, 3] | IC50 ([1]; guinea pig pancreatic membranes, 37° C., 30 min, IC50 from Hill analysis) | IC50 [2, 3]
CCCCCN(CCCCC)C(=O)[C@@H](CCC(=O)OCc1ccccc1)NC(=O)c1cc2ccccc2[nH]1 [Example 3, N-(2'-Indolylcarbonyl)-(γ-benzyl ester)-R-Glu-di-n-pentylamide] | 240 nM | 3500 nM | – | – | –
CCCCCN(CCCCC)C(=O)[C@@H](CCC(=O)O)NC(=O)c1ccc2ccccc2n1 [Example 6, N-(2,-Quinolylcarbonyl)-R-Glu-N^α,N^α -di-n-pentylamide] | 62 nM | 4200 nM | – | – | –
CCCCCN(CCCCC)C(=O)[C@@H](CCC(=O)O)NC(=O)c1cnc2ccccc2n1 [Example 10, N-(2'-Quinoxalylcarbonyl)-R-Glu-N^α,N^α -di-n-pentylamide] | 34 nM | 6500 nM | – | – | –
CCCCCN(CCCCC)C(=O)[C@@H](CCC(=O)O)NC(=O)C1CNc2ccccc2N1 (stereo partly drawn) [Example 13, N-(1',2',3',4'-Tetrahydroquinoxalyl-2'-carbonyl)-R-Glu-N^α,N^α -di-n-pentylamide] | 92 nM | 5600 nM | – | – | –
CCCCCN(CCCCC)C(=O)[C@@H](CC(=O)OCc1ccccc1)NC(=O)c1cc2ccccc2[nH]1 [Example 18] | 820 nM | 2900 nM | – | – | –
CCCCCN(CCCCC)C(=O)[C@@H](CC(=O)O)NC(=O)c1ccc2ccccc2n1 [Example 21, N-(2'-Quinolylcarbonyl)-R-Asp-N^α,N^α -di-n-pentylamide] | 210 nM | 6600 nM | – | – | –
CCCCCN(CCCCC)C(=O)[C@@H](CCC(N)=O)NC(=O)c1cc2ccccc2[nH]1 [Example 22, N-(2'-Indolylcarbonyl)-R-Gln-N^α,N^α -di-n-pentylamide] | 97 nM | 6660 nM | – | – | –
O=C(CC[C@@H](NC(=O)c1cnc2ccccc2c1)C(=O)NCc1ccccc1)OCc1ccccc1 [Example 25, N-(3'-Quinolylcarbonyl)-(γ-benzyl ester)-R-Glu-benzylamide] | 310 nM | > 10000 nM | – | – | –
COC(=O)[C@@H](NC(=O)[C@@H](CCC(=O)OCc1ccccc1)NC(=O)c1cc2ccccc2[nH]1)c1ccccc1 [Example 36, Methyl N-(2'-Indolylcarbonyl)-(γ-benzylester)-R-Glutamyl-S-phenylglycinate] | 200 nM | 6300 nM | – | – | –
COC(=O)[C@@H](NC(=O)[C@@H](CCC(=O)O)NC(=O)c1cc2ccccc2[nH]1)c1ccccc1 [Example 37, Methyl N-(2'-Indolylcarbonyl)-R-Glutamyl-S-phenylglycinate] | 49 nM | – | 1-10,000 nM | – | –
O=C(O)CC[C@@H](NC(=O)c1cc2ccccc2[nH]1)C(=O)Nc1ccccc1-c1ccccc1 [Example 38, N-(2'-Indolylcarbonyl)-R-Glu-N^α -(2'-biphenylamide)] | 900 nM | 7100 nM | – | – | –
O=C(O)CC[C@@H](NC(=O)c1cc2ccccc2[nH]1)C(=O)NC12CC3CC(CC(C3)C1)C2 [Example 54, N-(2'-Indolylcarbonyl)-R-Glu-N^α -(1,-adamantyl)amide] | 660 nM | > 10000 nM | – | – | –
CCCCCN(CCCCC)C(=O)[C@@H](CCC(=O)O)NC(=O)c1cc2ccccc2n1C [Example 60, N-(N^i -Methyl-2,-Indolylcarbonyl)-R-Glu-N^α,N^α -dipentylamide] | 34 nM | – | 1-10,000 nM | – | –
CCOC(=O)CN(Cc1ccccc1)C(=O)[C@@H](CCC(=O)OCc1ccccc1)NC(=O)c1cnc2ccccc2c1 [Example 82, Ethyl N-(3,-Quinolylcarbonyl)-(γ-benzylester)-R-Glutamyl (N-benzyl)glycinate] | 250 nM | 10000 nM | – | – | –
CCOC(=O)CN(Cc1ccccc1)C(=O)[C@@H](CCC(=O)O)NC(=O)c1cnc2ccccc2c1 [Example 83, Ethyl N-(3'-Quinolylcarbonyl)-R-Glutamyl(N-benzyl)glycinate] | 44 nM | > 10000 nM | – | – | –
CCOC(=O)CN(Cc1ccccc1)C(=O)[C@@H](CCC(=O)OCc1ccccc1)NC(=O)c1cc(O)c2cccc(O)c2n1 [Example 84] | 28 nM | 620 nM | – | – | –
CCOC(=O)CN(Cc1ccccc1)C(=O)[C@@H](CCC(=O)O)NC(=O)c1cc(O)c2cccc(O)c2n1 [Example 85, Ethyl N-(4',8'-Dihydroxyquinolyl-2-carbonyl)-R-Glutamyl (N-benzyl)glycinate] | 100 nM | < 10000 nM | – | – | –
COC(=O)[C@@H](NC(=O)[C@@H](CCC(=O)O)NC(=O)c1ccc2ccccc2c1)c1ccccc1 [Example 89, Methyl N-(2 '-Naphthoyl)-R-Glutamyl-S-phenylglycinate] | 140 nM | > 10000 nM | – | – | –
COC(=O)[C@@H](NC(=O)[C@@H](CCC(=O)O)NC(=O)c1cnc2ccccc2c1)c1ccccc1 [Example 91, Methyl N-(3,-Quinolylcarbonyl)-R-Glutamyl-S-phenylglycinate] | 68 nM | > 10000 nM | – | – | –
COC(=O)[C@@H](NC(=O)[C@@H](CCC(=O)O)NC(=O)c1cc(O)c2cccc(O)c2n1)c1ccccc1 [Example 93, Methyl N-(4',8'-Dihydroxyquinolyl-2-carbonyl)-R-Glutamyl-S-phenylglycinate] | 100 nM | ≤ 10000 nM | – | – | –
CCOC(=O)CN(CC(=O)OCC)C(=O)[C@@H](CCC(=O)OCc1ccccc1)NC(=O)c1cnc2ccccc2c1 [Example 106, N-(3'-Quinolylcarbonyl)-(γ-Benzyl ester)-R-Glutamyl-bis(carboethoxymethyl)amide] | 93 nM | ~10000 nM | – | – | –
CCOC(=O)CN(CC(=O)OCC)C(=O)[C@@H](CCC(=O)O)NC(=O)c1cnc2ccccc2c1 [Example 107, N-(3,-Quinolylcarbonyl)-R-Glutamyl-bis(carboethoxymethyl)amide] | 110 nM | > 10000 nM | – | – | –
CCOC(=O)CN(CC(=O)OCC)C(=O)[C@@H](CCC(=O)O)NC(=O)c1cc(O)c2cccc(O)c2n1 [Example 109, N-(4',8'-Dihydroxyquinolyl-2-carbonyl)-R-Glutamyl-bis(carboethoxymethyl)amide] | – | – | – | 56 nM | 620 nM
